Laboratory results reported in patent publication US20040014209A1, “Compositions and methods for modulating cell differentiation” (priority 2002, published 2004).

Key:
[1] = test system: posterior lateral plate (PLP) mesoderm explants; experiment: Cardiac induction in posterior lateral plate (PLP) mesoderm explants; format: cell-based, chick; conditions: PLP mesoderm cocultured with transfected COS cells; RT-PCR
Text: As crescent is expressed in anterior endoderm at approximately the stage expected for a heart-inducing factor, we investigated whether this Wnt inhibitor could induce the formation of heart muscle in explanted gastrula-stage posterior tissues. We made a replication-competent RCAS-crescent retrovirus and examined whether viral crescent expression can substitute for anterior endoderm in the cardiac induction assay. Explants of either PLP-mesoderm or PPS were infected with RCAS viruses encoding either crescent (RCAS-crescent) or alkaline phosphatase (RCAS-AP).
Eggs were incubated to the given stage (Hamburger and Hamilton 1951), and tissues were dissected with tungsten needles in Tyrodes solution using 1% agar dishes as a base. Serum-free medium containing insulin, transferrin, and selenium was adapted from Stern and Hauschka (1995) and supplemented with 2% chick embryo extract (Life Technologies). Virally infected explants were incubated on ice with viral supernatant diluted 1:1 with culture medium for 1-2 h, then cultured overnight in a sandwich of 35% collagen pads and overlaid with the above concentration of viral supernatant and medium containing 8 μg/mL polybrene. The following day, 0.25 mL of culture medium was added to each well. Anterior endoderm and COS cell cocultures were carried out on 2-μ pore size Nucleopore filters floating on culture medium. […]

Wnt8 = target: T1, Wnt8 (Xenopus laevis, UniProt P28026); experiment: Block of Wnt8 induction of Siamois in animal caps; format: cell-based; conditions: RT-PCR at stage 10.5
T1 construct: expressed in transfected cells; host or cells: Xenopus laevis embryos (mRNA injection at the two-cell stage), animal caps isolated at stage 9
T1 sequence (P28026 23-358): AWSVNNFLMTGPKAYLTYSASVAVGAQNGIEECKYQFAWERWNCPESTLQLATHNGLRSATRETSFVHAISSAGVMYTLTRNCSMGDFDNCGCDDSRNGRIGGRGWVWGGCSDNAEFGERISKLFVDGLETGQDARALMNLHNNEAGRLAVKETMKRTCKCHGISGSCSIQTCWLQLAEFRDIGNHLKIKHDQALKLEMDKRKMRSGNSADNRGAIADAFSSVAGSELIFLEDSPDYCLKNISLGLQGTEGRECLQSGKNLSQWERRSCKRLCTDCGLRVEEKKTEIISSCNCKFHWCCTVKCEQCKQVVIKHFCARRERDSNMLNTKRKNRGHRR
Method: FIG. 6. dkk-1 and crescent, but not frzb, induce cardiac specific gene expression in noncardiogenic tissue. (A) mRNAs encoding various Wnt and BMP antagonists were injected equatorially into ventral blastomeres at the four-cell stage. Ventral marginal zone (VMZ) tissue was then explanted from Xenopus laevis at stage 10 and cultured until analyzed by RT-PCR for gene expression at stage 30 (see Materials and Methods). (B) Injection of dkk-1 or crescent induced both markers of cardiac mesoderm (Tbx5 and Nkx2.5) and heart muscle-specific genes (cardiac isoform of troponin-I, Tnlc, and myosin heavy chain-α, MHCα) in VMZ tissue. frzb, in contrast, induced muscle actin (m. actin), which is primarily a skeletal muscle marker, but not cardiac specific gene expression. […] Wnt8 and Wnt antagonist mRNAs were injected into the animal region of two-cell-stage embryos and caps were isolated at stage 9, cultured, and processed for RT-PCR at stage 10.5 (F). […] EF1α expression is shown as a control for the RT reaction in all cases.
The reason for the difference in doses of dkk-1 and crescent mRNA required to induce muscle actin and the cardiac-specific markers was explored further by evaluating their relative ability to block Siamois induction by Wnt8 (FIG. 6F, G). […]

In the case of dkk-1, the “Cardiac gene expression (Nkx-2.5, CMHC1)” value [1] was “induced both Nkx2.5 and CMHC1” and the “Wnt8 induction of Siamois” value (Wnt8) was “block Wnt8 induction of Siamois”.
